These results are taken from ChEMBL document CHEMBL4190385, “Benzofuran-pyran hybrids: A new class of potential bone anabolic agents” (Bioorg Med Chem Lett, 2018).

The source made the active and inactive calls. The calls are words filed in the database; no cut-off is given here.

Data set [1] has as its system Calvarial osteoblast. The data set is described as follows: Cytotoxicity in rat calvarial osteoblasts assessed as reduction in cell viability at 1 pM to 1 uM incubated for 48 hrs by MTT assay. The format is cell-based. For orientation: Formazan colour is commonly taken as a measure of viable cells.
Data set [2] relates to Calvarial osteoblast. The data set is described as follows: Stimulation of mineralization in rat calvarial osteoblasts assessed as increase in calcium nodules at 10 nM by Alizarin red S staining based photography. The format is functional, cell-based.
The test system of data set [3] is Calvarial osteoblast. The data set is described as follows: Stimulation of osteoblast differentiation in rat calvarial osteoblasts assessed as increase in ALP activity at 1 uM using p-nitrophenylphosphate substrate incubated for 48 hrs by colorimetry. It is filed as functional, cell-based.
The subject of data set [4] is Calvarial osteoblast. The data set can be described thus: Stimulation of osteoblast differentiation in rat calvarial osteoblasts assessed as increase in ALP activity at 1 pM to 100 uM using p-nitrophenylphosphate substrate incubated for 48 hrs by colorimetry. It is filed as functional, cell-based.
Data set [5] deals with Calvarial osteoblast. The data set is described as follows: Increase in COL1 mRNA expression in rat calvarial osteoblasts at 10 nM incubated for 72 hrs by qPCR method. The format is functional. (In general: Real-time PCR tracks product formation cycle by cycle.)
A short description of data set [6]: Increase in BMP2 mRNA expression in Sprague-Dawley rat bone marrow stromal cells at 10 nM incubated for 7 days hrs by qPCR method. The format is functional.
Data set [7] in a line: Increase in Runx-2 mRNA expression in Sprague-Dawley rat bone marrow stromal cells at 10 nM incubated for 7 days hrs by qPCR method. The format is functional.
The subject of data set [8] is Calvarial osteoblast. The data set can be described thus: Stimulation of osteoblast differentiation in rat calvarial osteoblasts assessed as increase in ALP activity at 100 nM using p-nitrophenylphosphate substrate incubated for 48 hrs by colorimetry. The format is functional, cell-based.
The test system of data set [9] is Calvarial osteoblast. The data set can be described thus: Increase in Runx-2 mRNA expression in rat calvarial osteoblasts at 10 nM incubated for 72 hrs by qPCR method. It is filed as functional.
Data set [10] in a line: Increase in Osx mRNA expression in Sprague-Dawley rat bone marrow stromal cells at 10 nM incubated for 7 days hrs by qPCR method. It is filed as functional.
Data set [11] is filed under the species Rattus norvegicus. The data set is described as follows: Stimulation of mineralization in Sprague-Dawley rat bone marrow stromal cells assessed as increase in calcium nodules at 1 uM incubated for 18 days hrs by Alizarin red S staining based photography. The format is functional.
Data set [12] is described as follows: Increase in BMP2 mRNA expression in Sprague-Dawley rat bone marrow stromal cells at 1 uM incubated for 7 days hrs by qPCR method. It is filed as functional.
The species named for data set [13] is Rattus norvegicus. The data set is described as follows: Stimulation of mineralization in Sprague-Dawley rat bone marrow stromal cells assessed as increase in calcium nodules at 10 nM incubated for 18 days hrs by Alizarin red S staining based photography. The format is functional.
In data set [14] the test system is Calvarial osteoblast. The data set can be described thus: Increase in BMP2 mRNA expression in rat calvarial osteoblasts at 10 nM incubated for 72 hrs by qPCR method. It is filed as functional.
Data set [15] relates to Calvarial osteoblast. The data set can be described thus: Stimulation of mineralization in rat calvarial osteoblasts assessed as increase in calcium nodules at 100 pM by Alizarin red S staining based photography. It is filed as functional, cell-based.
Data set [16] has as its system Calvarial osteoblast. The data set is described as follows: Stimulation of mineralization in rat calvarial osteoblasts assessed as increase in calcium nodules at 10 pM by Alizarin red S staining based photography. The format is functional, cell-based.
Data set [17] concerns Calvarial osteoblast. The data set can be described thus: Stimulation of mineralization in rat calvarial osteoblasts assessed as increase in calcium nodules at 1 uM by Alizarin red S staining based photography. It is filed as functional, cell-based.

Take `Cc1ccc(C(=O)c2cc3cc(C4C(C#N)=C(N)OC5=C4C(=O)CC(C)(C)C5)cc(C)c3o2)cc1` (centres undefined): the Activity entry with Calvarial osteoblast [1] is reported as “Non-Toxic”. Moreover, the result in the data set on Calvarial osteoblast [2] was inactive. Also, the outcome with Calvarial osteoblast [3] and in the data set on Calvarial osteoblast [4] was Active.
For `COc1ccc(C(=O)c2cc3cc(C4C(C#N)=C(N)OC5=C4C(=O)CC(C)(C)C5)cc(C)c3o2)cc1` (centres undefined), the “fold change (FC)” value was 1.8 with Calvarial osteoblast [5]; 2.8 in data set [6]; 2 in data set [7]; 2.4 in the data set on Calvarial osteoblast [9]; 3 in data set [10]; 1.8 in [12]. Also, the “fold change (FC)” value in the data set on Calvarial osteoblast [14] is 2.2. In addition, the Activity result with Calvarial osteoblast [1] is listed as “Non-Toxic”. The result in the data set with Calvarial osteoblast [2], in the data set on Calvarial osteoblast [8], in the data set filed under Rattus norvegicus [11], in the data set on Calvarial osteoblast [4] and in the data set listed under Rattus norvegicus [13] was Active.
With `CCc1cc(C2C(C#N)=C(N)OC3=C2C(=O)CC(C)(C)C3)cc2cc(C(=O)c3ccc(OC)cc3)oc12` (centres undefined), the Activity entry with Calvarial osteoblast [1] is reported as “Non-Toxic”. The result in the data set with Calvarial osteoblast [4] was Active. Besides, the result with Calvarial osteoblast [15] was inactive.
On the same counts, the results for `COc1ccc(C(=O)c2cc3cc(C4C(C#N)=C(N)OC5=C4C(=O)CC(C)(C)C5)cc(C(C)(C)C)c3o2)cc1` (centres undefined) are “Non-Toxic”, “Active” and “inactive”.
On to `CC1(C)CC(=O)C2=C(C1)OC(N)=C(C#N)C2c1cc(C(C)(C)C)c2oc(C(=O)c3ccc(Cl)cc3)cc2c1` (centres undefined), for which the Activity result in the data set with Calvarial osteoblast [1] is reported as “Non-Toxic”. In addition, the result with Calvarial osteoblast [16] was inactive. The outcome in the data set with Calvarial osteoblast [4] was Active.
For `Cc1ccc(C(=O)c2cc3cc(C4C(C#N)=C(N)OC5=C4C(=O)CC(C)(C)C5)cc(C(C)(C)C)c3o2)cc1` (centres undefined), the Activity entry in the data set with Calvarial osteoblast [1] is “Non-Toxic”. Moreover, the outcome in the data set with Calvarial osteoblast [17] and in the data set on Calvarial osteoblast [4] was Active.
